For 69 compounds, EC50 results are on record in patent publication US9809602B2, “Compounds for treating viral infections” (INSTITUT PASTEUR KOREA, priority 2014, dated 2017).

The subject of one experiment is genotype 1/2 chimeric cell culture derived HCV (HCVcc). The experiment can be described thus: Genotype 1/2 chimeric HCVcc assay (nano-luciferase, HCV replication). Format: cell-based. The conditions noted are these: Hepatitis C virus. The method, boiled down:
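EC50 (replication, nano-luciferase) and CC50 (viability, cellular ATP) were determined by non-linear regression 72 h after infection with a reporter HCVcc chimera carrying genotype 1a structural and 2a JFH-1 non-structural proteins. Compound was applied to Huh-7.5 cells 2 h before inoculation.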
On to `c1ccc(Oc2ccc(CNCCCN3CCC(N4CCCCC4)CC3)cc2)cc1` [Compound 1046], for which the EC50 was in the range of 100 to 1000 nM. Same read-out and setting: as for `O=C(NC1CC(N2CCC(N3CCCCC3)CC2)C1)c1ccc(Oc2ccccc2)cc1` (stereo not drawn) [Compound 1059], the figure is 1000 to 10000 nM; as for `O=C(NCCCOc1ccc(N2CCCCC2)cc1)c1ccc(Oc2ccccc2)cc1` [Compound 1051], more than 10000 nM. Compound `O=C(NCCCN1CCC(N2CCCCC2)CC1)c1ccc(-c2ccc(F)cc2)cc1` [Compound 1020] gave a concentration for a half-maximal effect (EC50) of 100 to 1000 nM. Still for that read-out and setting: as for `CN(CCCN1CCC(N2CCCCC2)CC1)C(=O)c1ccc(Oc2ccccc2)cc1` [Compound 1047], the figure is 1000 to 10000 nM. `CC(C)(C)OC(=O)c1ccc(-c2ccc(C(=O)NCCCN3CCC(N4CCCCC4)CC3)cc2)cc1` [Compound 1139]: the EC50 is 100 to 1000 nM. Same read-out and setting: as for `COc1ccccc1-c1ccc(C(=O)NCCCN2CCC(N3CCCCC3)CC2)cc1` [Compound 1017], the figure is 1000 to 10000 nM; as for `O=C(NCCCN1CCC(N2CCCCC2)CC1)c1ccc(-c2ccccc2OC(F)(F)F)cc1` [Compound 1149], 100 to 1000 nM; as for `Cc1ccc(-c2ccc(C(=O)NCCCN3CCC(N4CCCCC4)CC3)cc2)cc1` [Compound 1016], 100 to 1000 nM. Still for that read-out and setting: as for `O=C(NCCCN1CCC(N2CCCCC2)CC1)c1ccc(-c2cccs2)cc1` [Compound 1023], the figure is 100 to 1000 nM; as for `COc1cc(C(=O)NCCCN2CCC(N3CCCCC3)CC2)ccc1-c1ccc(C(F)(F)F)cc1` [Compound 1115], 100 to 1000 nM; as for `O=C(NCCCN1CCC(N2CCCCC2)CC1)c1ccc(-c2cccc(OC(F)(F)F)c2)cc1` [Compound 1145], 100 to 1000 nM. Consider `O=C(c1ccc(C2CCCCC2)cc1)N1CCC(N2CCCCC2)CC1` [Compound 1007], for which the EC50 lay within 1000 to 10000 nM.

Regarding `O=C(NCCCN1CCC(N2CCCCC2)CC1)c1ccc(-c2ccc(F)cc2Cl)cc1` [Compound 1132], the EC50 lay in the range of 100 to 1000 nM.

`O=S(=O)(NCCCN1CCC(N2CCCCC2)CC1)c1ccc(-c2ccc(Cl)cc2)cc1` [Compound 1099] gave an EC50 of 100 to 1000 nM.

On to `O=C(NCCCN1CCC(N2CCCCC2)CC1)c1cc(-c2ccc(C(F)(F)F)cc2)cs1` [Compound 1082], for which the EC50 lay in the range of 100 to 1000 nM. On the same count and under the same terms, for `O=S(=O)(NCCCN1CCC(N2CCCCC2)CC1)c1ccc(-c2ccc(OC(F)(F)F)cc2)cc1` [Compound 1092] the value was 100 to 1000 nM; for `O=S(=O)(NCCCN1CCC(N2CCCCC2)CC1)c1ccc(Oc2ccccc2)cc1` [Compound 1060], 100 to 1000 nM; for `CC(=O)Nc1ccc(-c2ccc(C(=O)NCCCN3CCC(N4CCCCC4)CC3)cc2)cc1` [Compound 1140], more than 10000 nM. As to `O=C(NCCCN1CCC(N2CCCCC2)CC1)c1cc2ccccc2s1` [Compound 1009], the 50% effective concentration (EC50) was in the range of 1000 to 10000 nM. The same measure, in the same setting: as for `O=C(NCCCN1CCC(N2CCCCC2)CC1)c1ccc(-c2ccc(C(F)(F)F)nc2)cc1` [Compound 1101], the figure is 100 to 1000 nM; as for `COc1ccc(-c2ccc(C(=O)NCCCN3CCC(N4CCCCC4)CC3)cc2)c(F)c1` [Compound 1131], 100 to 1000 nM; as for `O=C(Nc1cccc(CN2CCC(N3CCCCC3)CC2)c1)c1ccc(Oc2ccccc2)cc1` [Compound 1075], 100 to 1000 nM.

Still in this experiment, the particulars now being: Hepatitis C virus, Huh7.5, 72 h.
Consider `CCOC(=O)c1c(NC(=O)NCc2c(C(F)(F)F)sc3c2CCNC3)sc2c1CCCC2` [Compound 96], for which the EC50 was less than 100 nM. On the same count and under the same terms, as for `COC(=O)c1c(NC(=O)NCc2c(C(F)(F)F)sc3c2CC[N+](C)(C)C3)sc2c1CCCC2` [Compound 223], the figure is 1000 to 10000 nM; as for `CCOC(=O)c1c(NC(=O)NCc2c(C(F)(F)F)sc3c2CCN(C(C)C)C3)sc2c1CCCC2` [Compound 198], less than 100 nM. Same read-out and setting: as for `COC(=O)c1c(NC(=O)NCc2c(Br)sc3c2CCNC3)sc2c1CCCC2` [Compound 128], the figure is less than 100 nM; as for `CCN1CCc2c(sc(-n3cccc3)c2CNC(=O)Nc2sc3c(c2C(=O)OC(C)(C)C)CC(C)CC3C)C1` (stereo not drawn) [Compound 294], less than 100 nM; as for `CC(C)OC(=O)c1c(NC(=O)NCc2c(Br)sc3c2CCN(C)C3)sc2c1CCCC2` [Compound 172], less than 100 nM. On the same count and under the same terms, as for `CCOC(=O)c1c(NC(=O)OCc2c(-n3cccc3)sc3c2CCN(CC)C3)sc2c1CCCC2` [Compound 94], the figure is less than 100 nM. The compound `CCN1CCc2c(sc(-n3cccc3)c2CNC(=O)Nc2cccc(Cl)c2)C1` [Compound 9] came in with a half-maximal effective concentration (EC50) of more than 10000 nM. `CCN1CCc2c(sc(Br)c2CNC(=O)Nc2sc3c(c2C(=O)OC(C)(C)C)CCCC3)C1` [Compound 111] had an EC50 of less than 100 nM.

`CCN1CCc2c(sc(C(F)(F)F)c2CNC(=O)Nc2sc3c(c2C(=O)OC(C)(C)C)CCC3)C1` [Compound 254] yielded an EC50 of less than 100 nM. The compound `CC1CCc2sc(NC(=O)NCc3c(C(F)(F)F)sc4c3CCNC4)c(C(=O)OC(C)(C)C)c2C1` (stereo not drawn) [Compound 233] gave a concentration giving a half-maximal response (EC50) of less than 100 nM. In the case of `CCOC(=O)c1c(NC(=O)NCc2c(-n3cccc3)sc3c2CCNC3)sc2c1CCNC2` [Compound 64], the EC50 was in the range of 1000 to 10000 nM. Compound `Cc1sc(NC(=O)NCc2c(C(F)(F)F)sc3c2CCN(CCN(C)C)C3)c(C(=O)OC(C)(C)C)c1C` [Compound 367] gave a concentration giving a half-maximal response (EC50) of less than 100 nM.

Compound `CCN1CCc2c(sc(-n3cccc3)c2CNC(=O)Nc2sc(C)c(C)c2C(=O)OC(C)(C)C)C1` [Compound 25] returned an EC50 of less than 100 nM. On to `CCOC(=O)c1c(NC(=O)NCc2c(Br)sc3c2CCNC3)sc2c1CC(C)CC2` (stereo not drawn) [Compound 193], for which the half-maximal effective concentration (EC50) was less than 100 nM. `Cc1ccccc1-c1sc2c(c1CNC(=O)Nc1sc3c(c1C(=O)OC(C)(C)C)CCCC3)CCNC2` [Compound 250] displayed an EC50 of 100 to 1000 nM. `CC1CCc2sc(NC(=O)NCc3c(-n4cccc4)sc4c3CCN(C)C4)c(C(=O)OC(C)(C)C)c2C1` (stereo not drawn) [Compound 231] registered a half-maximal effective concentration (EC50) of less than 100 nM. For the compound `CCN1CCc2c(sc(-n3cccc3)c2CNC(=O)Nc2sc3c(c2C(=O)NCCCOC)CCCC3)C1` [Compound 79], the EC50 was in the range of 100 to 1000 nM. `CCOC(=O)c1c(NC(=O)NCc2c(-n3cccc3)sc3c2CCN(Cc2ccccc2)C3)sc2c1CCCC2` [Compound 7] registered an EC50 of less than 100 nM. The same measure, in the same setting: as for `CCN1CCc2c(sc(-n3cccc3)c2CNC(=O)Nc2nccs2)C1` [Compound 13], the figure is more than 10000 nM; as for `CCOC(=O)c1c(NC(=O)NCc2c(Cl)sc3c2CCNC3)sc2c1CCCC2` [Compound 97], 100 to 1000 nM; as for `CCOC(=O)c1c(NC(=O)NCc2c(-n3cccc3)sc3c2CCCN3C(=O)OC(C)(C)C)sc2c1CCCC2` [Compound 100], more than 10000 nM. `COc1cccc(-c2sc3c(c2CNC(=O)Nc2sc4c(c2C(=O)OC(C)(C)C)CCCC4)CCNC3)c1` [Compound 228] came in with a concentration giving a half-maximal response (EC50) of 100 to 1000 nM.

On to `C=CCCOC(=O)c1c(NC(=O)NCc2c(Br)sc3c2CCNC3)sc2c1CCCC2` [Compound 274], for which the EC50 was less than 100 nM.

Consider `CCOC(=O)c1c(NC(=O)NCc2c(C(F)(F)F)sc3c2CCN(C)C3)sc2c1CCCC2` [Compound 197], for which the EC50 was less than 100 nM.

Turning to `Cc1sc(NC(=O)NCc2c(-c3cccc(F)c3)sc3c2CCNC3)c(C(=O)OC(C)(C)C)c1C` [Compound 364], the EC50 is less than 100 nM. Same read-out and setting: for `COCCN1CCc2c(sc(-n3cccc3)c2CNC(=O)Nc2sc3c(c2C(=O)OC(C)(C)C)CCCC3)C1` [Compound 259] the value was less than 100 nM. `CC1CCc2sc(NC(=O)NCc3c(Br)sc4c3CCNC4)c(C(=O)OC(C)(C)C)c2C1` (stereo not drawn) [Compound 234] returned an EC50 of less than 100 nM. `CCOC(=O)c1c(NC(=O)NCc2c(-n3cccc3)sc(CN(C)C)c2C)sc2c1CCCC2` [Compound 22]: the EC50 was less than 100 nM. Compound `CC(C)(C)OC(=O)c1c(NC(=O)NCc2c(-c3ccc(Cl)c(Cl)c3)sc3c2CCNC3)sc2c1CCCC2` [Compound 287] displayed an EC50 of 100 to 1000 nM. On the same count and under the same terms, for `CCOC(=O)c1c(NC(=O)NCc2c(-n3cccc3)sc3c2CCN(CC)C3)sc(OC)c1C` [Compound 32] the value was 100 to 1000 nM; for `CC(C)(C)OC(=O)c1c(NC(=O)NCc2c(-c3ccco3)sc3c2CCNC3)sc2c1CCCC2` [Compound 340], less than 100 nM; for `CCN1CCc2c(sc(-n3cccc3)c2CNC(=O)Nc2sc3c(c2C(=O)NCCOCCOCCN)CCCC3)C1` [Compound 89], 1000 to 10000 nM.

For `Cc1sc(NC(=O)NCc2c(C(F)(F)F)sc3c2CCNC3)c(C(=O)OC(C)C)c1C` [Compound 217], the EC50 was less than 100 nM. In turn, `CC(C)(C)OC(=O)c1c(NC(=O)NCc2c(-c3ccoc3)sc3c2CCNC3)sc2c1CCOC2` [Compound 331] registered an EC50 of less than 100 nM. The same measure, in the same setting: for `CCOC(=O)c1c(NC(=O)NCc2c(-n3cccc3)sc3c2CCNC3)sc2c1CCC2` [Compound 112] the value was less than 100 nM; for `CCOC(=O)c1c(NC(=O)C(=O)NCc2c(-n3cccc3)sc3c2CCN(CC)C3)sc2c1CCCC2` [Compound 78], less than 100 nM; for `CCOC(=O)c1c(NC(=O)NCc2c(-n3cccc3)sc3c2CCN(S(C)(=O)=O)C3)sc2c1CCCC2` [Compound 21], less than 100 nM. Still for that read-out and setting: as for `CN1CCN(c2sc3c(c2CNC(=O)Nc2sc4c(c2C(=O)OC(C)(C)C)CCCC4)CCNC3)CC1` [Compound 144], the figure is 100 to 1000 nM. As for `CC(C)OC(=O)c1c(NC(=O)NCc2c(-c3ccccc3)sc3c2CCNC3)sc2c1CCCC2` [Compound 226], the EC50 was less than 100 nM. `CCOC(=O)c1c(NC(=O)NCc2ccc(N(C)C)cc2)sc2c1CCCC2` [Compound 103] came in with an EC50 of less than 100 nM. Still for that read-out and setting: as for `CCOC(=O)c1c(NC(=O)NCc2c(-n3cccc3)sc3c2CCCNC3)sc2c1CCCC2` [Compound 243], the figure is less than 100 nM.

Consider `CCOC(=O)c1c(NC(=O)NCc2c(-n3cccc3)sc3c2CCNC3)sc2c1CCC(F)(F)C2` [Compound 75], for which the EC50 is less than 100 nM. Still for that read-out and setting: for `O=C(NCc1c(-c2ccoc2)sc2c1CCNC2)Nc1sc2c(c1C(=O)OC1CCCC1)CCCC2` [Compound 344] the value was less than 100 nM. On the same count and under the same terms, as for `CC(C)(C)OC(=O)c1c(NC(=O)NCc2c(-c3cccc(C#N)c3)sc3c2CCNC3)sc2c1CCCC2` [Compound 229], the figure is 100 to 1000 nM. The compound `CCOC(=O)c1c(NC(=O)NCc2c(C(F)(F)F)sc3c2CCN(CCN(C)C)C3)sc2c1CCCC2` [Compound 316] displayed an EC50 of less than 100 nM.

One may read the EC50 as the concentration giving half of the maximal effect. Lower therefore signals an effect from little substance.
